In patent US20230330221A1, “ADJUVANT BASED ON PEPTIDE NUCLEIC ACID” (priority 2019, published 2023):
Entries after “also recorded” stand apart in the source; their conditions may differ. Read-outs that look alike come from different tables or passages of the source.

How the values were obtained:
[1] = system: A/Singapore/GP1908/2015 strain; type: in vivo, BALB/c mouse; conditions: subcutaneous, 1 μg adjuvant per shot, after the second administration; rank among MIP01, adjuvant-free and CPP01 groups (FIG. 2)
[2] = system: A/Singapore/GP1908/2015 strain; type: in vivo, BALB/c mouse; conditions: transnasal, 10 μg adjuvant per shot; rank among MIP01, adjuvant-free and CPP01 groups (FIG. 4A)
[3] = system: B/Maryland/15/2016 strain; type: in vivo, BALB/c mouse; conditions: transnasal, 10 μg adjuvant per shot; rank among MIP01, adjuvant-free and CPP01 groups (FIG. 4B)
[4] = system: A/Singapore/GP1908/2015 strain; type: in vivo, BALB/c mouse; conditions: subcutaneous, both first and second administrations
[5] = system: B/Maryland/15/2016 strain; type: in vivo, BALB/c mouse; conditions: subcutaneous, both first and second administrations
[6] = system: A/Singapore/GP1908/2015 strain; type: in vivo; conditions: transnasal, 10 μg adjuvant + 1 μg HA split antigen per shot, BALB/c mouse, both first and second administrations; versus adjuvant-free group (FIG. 3A)
[7] = system: B/Maryland/15/2016 strain; type: in vivo; conditions: transnasal, 10 μg adjuvant + 1 μg HA split antigen per shot, BALB/c mouse, both first and second administrations; versus adjuvant-free group; Mann-Whitney U test, p<0.05 (FIG. 3B)

Substance	neutralizing antibody titer against A/Singapore/GP1908/2015 strain [1]	antigen-specific IgA titer in the nasal cavity wash against A/Singapore/GP1908/2015 strain [2]	antigen-specific IgA titer in the nasal cavity wash against B/Maryland/15/2016 strain [3]	blood antigen-specific IgG titer against A/Singapore/GP1908/2015 strain ([4]; 1 μg adjuvant + 1 μg HA split antigen per shot, BALB/c mouse, versus adjuvant-free group (FIG. 1A))	blood antigen-specific IgG titer against A/Singapore/GP1908/2015 strain ([4]; 1 μg adjuvant per shot, compared to the CPP01 administration group (FIG. 1A))	blood antigen-specific IgG titer against B/Maryland/15/2016 strain ([5]; 1 μg adjuvant + 1 μg HA split antigen per shot, BALB/c mouse, versus adjuvant-free group (FIG. 1B))	blood antigen-specific IgG titer against B/Maryland/15/2016 strain ([5]; 1 μg adjuvant per shot, compared to the CPP01 administration group (FIG. 1B))	blood antigen-specific IgG titer against A/Singapore/GP1908/2015 strain [6]	blood antigen-specific IgG titer against B/Maryland/15/2016 strain [7]
GRKKRRQRRRPPQ (Human immunodeficiency virus) [CPP01, reference compound]	lowest value	lowest	lowest	–	–	–	–	–	–
GRKKRRQRRRPPQ-G3PNA (C-terminal G3PNA conjugate; Human immunodeficiency virus) [MIP01]	highest value	highest	highest	higher as compared to that in the adjuvant-free group	showed a higher blood antigen-specific IgG titer	higher as compared to that in the adjuvant-free group	showed a higher blood antigen-specific IgG titer	higher as compared to that in the adjuvant-free group	higher as compared to that in the adjuvant-free group; also recorded: significant increase in antibody titer with respect to the adjuvant-free group
